Drawing on BindingDB's records for doi:10.1016/s0960-894x(03)00295-6 (Rensselaer Polytechnic Institute, 2003), this text covers Ki for nine molecules.

Structures are written as SMILES. A value given as a limit tells only on which side of the number the result lay.

The assay can be described thus: Binding affinity was determined towards Opioid receptor delta 1 using [3H]naltrindole as radioligand.
Consider `Nc1ccc2c3c1O[C@H]1C(=O)CC[C@@]4(O)[C@@H](C2)N(CC2CC2)CC[C@]314` [10-amino-4-cyclopropylmethyl-17-hydroxy-(1S,5R,13R,17S)-12-oxa-4-azapentacyclo[9.6.1.01,13.05,17.07,18]octadeca-7(18),8,10-trien-14-one], for which the Ki stood at 880 nM.

The molecule `CC1[C@H]2Cc3ccc(NC=O)cc3[C@]1(C)CCN2CC1CC1` (stereo partly drawn) [(1R,9R,13R)-10-(cyclopropylmethyl)-1,13-dimethyl-10-azatricyclo[7.3.1.0~2,7~]trideca-2,4,6-trien-4-ylformamide] had an inhibition constant Ki of 9.8 nM.

`C[C@@H]1C2Cc3ccc(NC=O)cc3[C@]1(C)CCN2CC1CC1` [(1S,9S,13S)-10-(cyclopropylmethyl)-1,13-dimethyl-10-azatricyclo[7.3.1.0~2,7~]trideca-2,4,6-trien-4-ylformamide] had a Ki of more than 10000 nM.

`C[C@H]1C2Cc3ccc(N(C)C=O)cc3[C@@]1(C)CCN2CC1CC1` [N-((6S,11R)-3-Cyclopropylmethyl-6,11-dimethyl-1,2,3,4,5,6-hexahydro-2,6-methano-benzo[d]azocin-8-yl)-N-methyl-formamide] returned a Ki of 6200 nM.

Molecule `CC(=O)Nc1ccc2c(c1)[C@@]1(C)CCN(CC3CC3)C(C2)[C@@H]1C` [N-((6S,11R)-3-Cyclopropylmethyl-6,11-dimethyl-1,2,3,4,5,6-hexahydro-2,6-methano-benzo[d]azocin-8-yl)-acetamide] had a Ki of 1700 nM.

Consider `C[C@H]1C2Cc3ccc(NC(=O)c4ccccc4)cc3[C@@]1(C)CCN2CC1CC1` [N-((6S,11R)-3-Cyclopropylmethyl-6,11-dimethyl-1,2,3,4,5,6-hexahydro-2,6-methano-benzo[d]azocin-8-yl)-benzamide], for which the Ki is 2400 nM.

In turn, `C[C@H]1C2Cc3ccc(NC=O)cc3[C@@]1(C)CCN2CC1CC1` [N-((6S,11R)-3-Cyclopropylmethyl-6,11-dimethyl-1,2,3,4,5,6-hexahydro-2,6-methano-benzo[d]azocin-8-yl)-formamide] gave a Ki of 37 nM. Compared with the last molecule, the Ki is about 65-fold lower.

As to `CC[C@@]12CCN(CC3CC3)C(C(=O)c3ccc(NC=O)cc31)[C@@H]2C` [N-((6S,11R)-3-Cyclopropylmethyl-6-ethyl-11-methyl-1-oxo-1,2,3,4,5,6-hexahydro-2,6-methano-benzo[d]azocin-8-yl)-formamide], the affinity, expressed as Ki, was 52 nM.

For `O=CNc1ccc2c3c1O[C@H]1C(=O)CC[C@@]4(O)[C@@H](C2)N(CC2CC2)CC[C@]314` [N-[4-cyclopropylmethyl-17-hydroxy-14-oxo-(1S,5R,17S)-12-oxa-4-azapentacyclo[9.6.1.01,13.05,17.07,18]octadeca-7(18),8,10-trien-10-yl]methanamide], the Ki is 420 nM.
